With `CNC(=O)c1ccc(NC(=O)Oc2ccccc2)cc1`, the melting point lay in the range of 190 to 192 °C.
As for `Cc1cc(O)nc(-c2cccc(-c3ccccc3)n2)n1`, the figure is 172 °C; as for `COC(=O)c1cccc([N+](=O)[O-])c1NCc1ccc(-c2ccccc2-c2nnnn2Cc2ccccc2)cc1`, 115 to 117 °C; as for `CC12CCC3C(CC=C4CC(O)CCC43CSSCCO)C1CCC2=O` (stereo not given), 129 to 130 °C.
The compound `O=C1C(Cl)=C(Cl)C(=O)c2ncccc21` had a melting point of 221 to 222 °C.
For the compound `CC(=O)C(=Cc1cc(Cl)cc(Cl)c1)C(C)=O`, the melting point was in the range of 85 to 87 °C.
Take `COC(=O)CCC(=O)c1ccc(-c2ccc(C(F)(F)F)cc2)cc1`: the melting point is 140 to 142 °C.
The value for `O=C1N(c2ccc(C(F)(F)F)cc2)CN2C(c3ccc(Cl)cc3)C(c3ccccc3)CN12` (stereo not given) was 184 to 187 °C; that for `O=C1c2c(Cl)cccc2-n2cnc(-c3nnco3)c2[C@@H]2CCCN12` was 229 to 230 °C; that for `Cn1cc(-c2cc(OC3CCCC3)c(Cl)cc2F)c(=O)cc1C(F)(F)F` was 152 to 154 °C.
The value for `CCCC(CCCCCN1C(=O)c2ccccc2C1=O)(C(=O)OCC)C(=O)OCC` was 51 to 52 °C.
`O=C1CCCc2ccc(O)cc21`: the melting point fell in the range of 170 to 173 °C.
The value for `COCC(=O)Nc1cccc(C2(C3CCN(C(=O)c4ccc(O)cc4)CC3)N=C(N)N(C)C2=O)c1` (stereo not given) was 184 to 187 °C; that for `c1ccc(COc2ccc(-n3nnnc3C3CC3)cc2)cc1` was 118 °C; that for `CCNC(C)c1cc(S(N)(=O)=O)sc1S(C)(=O)=O` (stereo not given) was 164 to 166 °C.
`CSCC1Cn2cc(C(=O)NCc3ccc(Cl)cc3)c(=O)c3cc(CN4CCOCC4)cc(c32)O1` (stereo not given) registered a melting point of 190 to 191 °C.
As for `CC=C1CCC2C3=CC=C4CC(O[Si](C)(C)C(C)(C)C(C)C)CCC4(C)C3CCC12C` (stereo not given), the figure is 94 to 97 °C; as for `CCc1cn(C[C@@H](C)O)c2cc(Cl)c(F)cc12`, 112 to 114 °C; as for `CC(C)C[C@H](NC(=O)OCC1c2ccccc2-c2ccccc21)C(=O)N[C@H]1CCOC1OCc1ccccc1` (stereo not given in full), 116 to 117 °C.
As for `COc1cc2c(cc1OC)CN(C)C2`, the figure is 80 °C; as for `O=c1cccccc1S`, 55 °C; as for `COc1ccc(Nc2cccc3c2C(=O)N([C@@]2(C)CCC(=O)NC2=O)C3=O)c(OC)c1`, 255 to 257 °C.
Turning to `CC(C)(C)n1cc(-c2ccc(S(=O)(=O)c3ccccc3)cc2)c2c(N)ncnc21`, the melting point lay in the range of 222 to 224 °C.
The value for `O=C(OCCOc1ccc2ncnn2n1)C1CN(C(c2ccccc2)c2ccccc2)CCN1` (stereo not given) was 157 to 159 °C; that for `CC1(C)c2cc(C#N)ccc2OC1O` (stereo not given) was 103 to 122 °C; that for `CN1CCN(CNC(=O)c2cccc(Nc3nccc(-c4cccnc4)n3)c2)CC1` was 220 to 224 °C.
The value for `CCN(CC)S(=O)(=O)c1cc(Cl)c(Cl)c(Cl)c1SCSC#N` was 83 to 85 °C.
As for `COc1ccc2ccc(N3C(=O)C4=C(SCCO4)C3=O)nc2n1`, the figure is 255 °C.
In the case of `CCOC(=O)C(=O)Nc1cccc2ccccc12`, the melting point fell in the range of 105 to 107 °C.
On to `CCCCCc1ccc(CCCCCC(=O)O)cc1`, for which the melting point was in the range of 29 to 30 °C.
As for `Cc1cc(C)nc(NC(=O)NS(=O)(=O)c2c(Cl)c(C)nn2C)n1`, the melting point fell in the range of 191 to 194 °C.
The value for `CN1CCC(=C2c3ccccc3Sc3ccc(S(=O)(=O)C(F)(F)F)cc32)CC1` was 125 to 128 °C.
The value for `CCOC(=O)c1cc(-c2ccccc2OC)[nH]c1N` was 128 °C.
As for `Nc1c(CC(=O)O)cccc1Nc1ccc(Cl)cc1`, the figure is 190 to 192 °C; as for `COc1ccc2c(c1)C(=O)C(Cc1ccncc1)CO2` (stereo not given), 91 to 92.5 °C.
For the compound `Fc1ccc(Nc2ncnc3cnc(N4CCN(c5ccncc5)CC4)nc23)cc1Cl`, the melting point was 248 to 250 °C.
The compound `CN(CCN[C@H]1CC[C@H](c2ccccc2)CC1)c1ccc2[nH]c(=O)oc2c1` came in with a melting point of 229 to 234 °C.
The value for `CCOC(=O)Nc1ccc(OCc2nc3ccccc3s2)cc1` was 149 to 150 °C; that for `CN1CCN(C2Cc3ccccc3Sc3cc(F)c(Cl)cc32)CC1` (stereo not given) was 105 to 107 °C; that for `CC1(C)CCOc2cc(C(=O)Nc3ccc(C(=O)O)cc3)ccc21` was 279 to 281 °C.
Turning to `N#Cc1cc(C=O)cnc1Br`, the melting point is 105 to 106 °C.
As for `C=CS(=O)(=O)c1ccc(C(=O)O)cc1`, the figure is 228 °C; as for `O=C1NN=C(c2ccc(C(F)(F)F)cc2)CC1C(F)(F)F` (stereo not given), 135 to 136 °C.
The value for `CC(=O)N1CCC(c2nn(-c3ccccc3)c3cc(Cl)ccc23)CC1` was 130 to 132 °C; that for `Cc1nc(NCc2ccccn2)c2c(-c3ccccc3)csc2n1` was 110 to 112 °C; that for `O=C(OCC1OC(n2cc(F)c(=O)[nH]c2=O)C(O)C1O)C1CCCN1C(=O)OCc1ccccc1` (stereo not given) was 137 to 144 °C.
The value for `CCCCCCCCCCCCCCCCCCN(OCCCC)C(CCCCCCCCCCCCCCCCC)P(=O)(OCCCC)OCCCC` (stereo not given) was 38 to 40 °C; that for `CC(=O)NC[C@H]1CN(c2ccc(/C=C3\C(=O)N(c4ccccc4)N=C3C(C)(C)C)cc2)C(=O)O1` was 70 °C; that for `O=P(c1ccccc1)(c1ccccc1)C(O)c1c(Cl)cccc1Cl` (stereo not given) was 205 to 209 °C.
`C#CCCCN=C(NC#N)NCCSCc1[nH]cnc1C` came in with a melting point of 99 to 103 °C.
As for `COc1cc(NCCCO)c([N+](=O)[O-])cc1O`, the figure is 144 °C; as for `O=S(=O)(Nc1ccc2c(OCc3csc(C4COc5ccccc5O4)n3)cccc2c1)C(F)(F)F` (stereo not given), 183 to 185 °C.
As for `CNC(=S)Nc1ccccc1N1CCOCC1`, the figure is 115 to 116 °C.
`Brc1ccc2c(c1)C(c1ccccc1)OC(c1ccncc1)=N2` (stereo not given) came in with a melting point of 161 to 162 °C.
As for `CSc1ccc(CC(=O)NC(NC(Cc2ccccc2C)=NC#N)C(C)(C)C)cc1` (stereo not given), the figure is 201 to 202 °C; as for `N#Cc1cccnc1N1CCc2ccccc2CC1`, 110 to 112 °C.
As for `CCc1noc(-c2cn(-c3cccc(OCCc4ccccc4)c3)cn2)n1`, the figure is 124 to 125 °C; as for `O=C(Nc1c(-c2ccccc2F)nnn1CSc1ccccc1)C(Cl)C1CCC1` (stereo not given), 103 to 104 °C.
The value for `CC(C)CC(=O)c1c(-c2ccc3cc(O)cc(Br)c3c2)oc2ccccc12` was 160 to 161 °C; that for `COc1ccc2nc(NC(=O)C(CC3CCCC3)c3ccc(S(=O)(=O)NCc4ccccc4F)cc3)sc2n1` (stereo not given) was 238 to 240 °C; that for `Cn1cc(SCc2ccccc2)c(=O)c(-c2cccc(C(F)(F)F)c2)c1` was 121 to 122 °C.
Consider `Nc1ccc(C(=O)Nc2ccc3oc4c(c3c2)CCCC4)cc1`, for which the melting point is 207 to 208 °C.
Regarding `CCNC(=O)ON=C(C)C1=CCCN(C)C1`, the melting point lay in the range of 74 to 78 °C.
As for `CCCCCCCCCCOc1ccc(-c2ccc(C(=O)O)cc2)cc1`, the figure is 246 to 250 °C; as for `Cc1c(OC(C)(C)C(=O)O)ccc(OCCCC#Cc2ccc(OC(F)(F)F)cc2)c1F`, 116 to 118 °C; as for `N#CCOc1ccc(Cl)c(Cl)c1`, 61 to 62 °C.
As for `CCCc1nn(-c2ccc(C(F)(F)F)cn2)cc1CCCOc1ccc(F)c(CC(=O)O)c1`, the figure is 111 to 112 °C.
As for `COc1cc(C2=CCCCC2)c(Cl)cc1C(=O)N1Cc2ccc(C(=O)N(C)CC(O)CO)n2Cc2ccccc21` (stereo not given), the figure is 155 to 157 °C.
`Cc1cc(C)c2ccc(S(=O)(=O)O)nc2n1` came in with a melting point above 280 °C.
Regarding `O=C(NOc1ncc(C(F)(F)F)cc1Cl)c1cccc2ccccc12`, the melting point is 198 to 199 °C.
The value for `CC(C)COC(=O)/C=C/C1NC(=O)CN1C(=O)OCc1ccccc1` (stereo not given) was 97 to 100 °C.
Compound `CN(NC(=O)OC(C)(C)C)C(=O)C(C)(C)ON=C(C(=O)O)c1csc(N)n1` displayed a melting point of 145 °C.
The value for `CN(C)C1(c2cccc(O)c2)CCC(=O)CC1` was 175 to 177 °C; that for `CCCn1c2ccccc2c2c3c(nc(C)c21)CC(C)(C)CC3=O` was 123 to 125 °C; that for `Cc1ccccc1-n1ccc2c(NCCCO)nc3c(C)cccc3c21` was 135 to 137 °C.
In turn, `O=C(/C=C/C=C(c1ccc(C(F)(F)F)cc1)c1ccc(C(F)(F)F)cc1)Nc1cccc2cnccc12` registered a melting point of 164 to 166 °C.
The compound `CCOC(=O)c1c(CN(CC)CC)nc2cc(OC)c(OC)cc2c1-c1ccc(Cl)cc1` registered a melting point of 82 to 83 °C.
As for `CC(=O)OC1(C(C)=O)C(C)CC2C3CCC4=CC(=O)C=CC4(C)C3=CCC21C` (stereo not given), the figure is 230 to 233 °C.
The value for `CN(C)CC(=O)N1c2ccccc2N(C)C(=O)c2cnc(-c3ccccc3)nc21` was 207 to 208 °C.
As for `CN(C)C1=NC(NC(=O)CC2CCCCC2)C(=O)N(c2ccccc2)c2ccccc21` (stereo not given), the figure is 264 to 266 °C; as for `CC(C)(C)c1ccc(NS(=O)(=O)c2ccc(N3CCNC3=O)cc2)cc1`, 241 to 243 °C.
In the case of `O=c1ccoc2cc(OS(=O)(=O)C(F)(F)F)ccc12`, the melting point was in the range of 43 to 44 °C.
As for `CCCCCCCCCC1CNC(=O)O1` (stereo not given), the figure is 83 to 85 °C; as for `O=Cc1cc(-c2ccc(Cl)cc2Cl)ccc1OC(F)(F)F`, 62 to 63 °C.
For `CN(C)C(=O)c1ncn2c1CC(=O)N(c1ccccc1)c1cc(Cl)ccc1-2`, the melting point is 255 to 257 °C.
As for `CCOC(=O)c1cc2n(CC)c3ccc(Cl)cc3c(=O)n2n1`, the figure is 256 to 257 °C; as for `CC1=NN(c2cc(Cl)c(C(=O)c3ccc(Cl)cc3)c(Cl)c2)C(=O)NC1`, 257 to 259 °C; as for `O=C(c1ccc(F)cc1)C1CCN(CCCN2c3cccc4cccc(c34)S2(=O)=O)CC1`, 132 °C.
The value for `CC1(C)CC(C)(c2ccc(Oc3ccc(N)cc3)cc2)c2cc(Oc3ccc(N)cc3)ccc21` (stereo not given) was 135 to 136 °C.
The value for `Cn1cncc1C(c1cccs1)c1cccs1` was 78.5 to 80 °C.

The record behind these values is a melting point compilation (Tetko et al.; mined from patent text by program, amines drawn as free bases though some values may be those of a salt).
